Reference: US20250320193A1, “OXOISOINDOLINYL SUBSTITUTED PIPERIDINEDIONE DERIVATIVE AND USE THEREOF” (GLUETACS THERAPEUTICS (SHANGHAI) CO., LTD., priority 2022, published 2025)

Assays:
[1] = target: GSPT1 (Homo sapiens (Human), UniProt P15170+Q96SW2); assay: Western blot, substrate protein expression in hPBMC: GSPT1; type: cell-based; conditions: for substrate protein remaining % GSPT1: hPBMC, compound 500 nM, 24 hours, Western blot
Procedure, shortened: (§1)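 hPBMC, 1×10^6 cells/mL, 24 h compound exposure; RIPA lysis, BCA protein assay, SDS-PAGE, NC membrane immunoblot. Densitometry vs internal control → % protein remaining; degradation % = 100% − remaining; DC50 = conc. at 50% of DMSO band signal.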

[2] = target: IKZF1 (Homo sapiens (Human), UniProt Q13422+Q96SW2); assay: Western blot, substrate protein expression in hPBMC: IKZF1; type: cell-based; conditions: for substrate protein remaining % IKZF1: hPBMC, compound 500 nM, 24 hours, Western blot
Procedure, shortened: as §1

[3] = target: IKZF3 (Homo sapiens (Human), UniProt Q96SW2+Q9UKT9); assay: Western blot, substrate protein expression in hPBMC: IKZF3; type: cell-based; conditions: for substrate protein remaining % IKZF3: hPBMC, compound 500 nM, 24 hours, Western blot
Procedure, shortened: as §1

[4] = target: human Cereblon WT GST-tagged protein (Homo sapiens (Human), UniProt Q96SW2); assay: CRBN-binding affinity, HTRF (CEREBLON BINDING kit, CISBIO); conditions: HTRF inhibitory activity
Procedure, shortened: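 Compounds were mixed with GST-tagged human Cereblon WT protein, then with Thalidomide-Red tracer and GST Eu antibody, and binding was read by HTRF. Inhibition rate was calculated from 620 nm emission relative to blank control wells (no protein) and solvent control wells.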

Chain of human Cereblon WT GST-tagged protein (Q96SW2 whole entry): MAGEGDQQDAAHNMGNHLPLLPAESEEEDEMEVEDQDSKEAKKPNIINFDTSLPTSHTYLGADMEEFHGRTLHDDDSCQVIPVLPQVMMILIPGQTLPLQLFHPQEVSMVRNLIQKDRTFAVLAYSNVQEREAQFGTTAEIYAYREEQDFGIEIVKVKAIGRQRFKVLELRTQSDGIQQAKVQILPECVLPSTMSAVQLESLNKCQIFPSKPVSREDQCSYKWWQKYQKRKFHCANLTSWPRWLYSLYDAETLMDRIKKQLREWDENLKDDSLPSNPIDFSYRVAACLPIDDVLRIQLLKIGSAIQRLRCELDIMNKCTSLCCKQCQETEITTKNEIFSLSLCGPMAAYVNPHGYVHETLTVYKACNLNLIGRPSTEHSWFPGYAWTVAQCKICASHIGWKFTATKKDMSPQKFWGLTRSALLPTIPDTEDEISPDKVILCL
Chain of IKZF1 (Q13422 whole entry): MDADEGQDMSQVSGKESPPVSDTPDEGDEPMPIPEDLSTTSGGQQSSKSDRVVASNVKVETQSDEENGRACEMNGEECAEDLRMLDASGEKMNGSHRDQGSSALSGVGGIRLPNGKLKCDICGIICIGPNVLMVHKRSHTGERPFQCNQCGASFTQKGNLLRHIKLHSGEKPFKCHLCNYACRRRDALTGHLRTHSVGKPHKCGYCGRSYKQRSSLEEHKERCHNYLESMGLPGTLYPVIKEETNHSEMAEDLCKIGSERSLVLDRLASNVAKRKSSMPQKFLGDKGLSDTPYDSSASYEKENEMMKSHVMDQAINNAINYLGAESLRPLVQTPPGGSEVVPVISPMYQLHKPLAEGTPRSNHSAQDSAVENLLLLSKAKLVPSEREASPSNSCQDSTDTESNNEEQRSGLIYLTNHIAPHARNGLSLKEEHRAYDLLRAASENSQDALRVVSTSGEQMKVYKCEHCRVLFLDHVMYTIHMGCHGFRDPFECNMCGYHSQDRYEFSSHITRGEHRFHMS
Chain of IKZF1 (Q96SW2 whole entry): as the sequence (Q96SW2 whole entry) above
Chain of IKZF1 (Q16531 whole entry partner): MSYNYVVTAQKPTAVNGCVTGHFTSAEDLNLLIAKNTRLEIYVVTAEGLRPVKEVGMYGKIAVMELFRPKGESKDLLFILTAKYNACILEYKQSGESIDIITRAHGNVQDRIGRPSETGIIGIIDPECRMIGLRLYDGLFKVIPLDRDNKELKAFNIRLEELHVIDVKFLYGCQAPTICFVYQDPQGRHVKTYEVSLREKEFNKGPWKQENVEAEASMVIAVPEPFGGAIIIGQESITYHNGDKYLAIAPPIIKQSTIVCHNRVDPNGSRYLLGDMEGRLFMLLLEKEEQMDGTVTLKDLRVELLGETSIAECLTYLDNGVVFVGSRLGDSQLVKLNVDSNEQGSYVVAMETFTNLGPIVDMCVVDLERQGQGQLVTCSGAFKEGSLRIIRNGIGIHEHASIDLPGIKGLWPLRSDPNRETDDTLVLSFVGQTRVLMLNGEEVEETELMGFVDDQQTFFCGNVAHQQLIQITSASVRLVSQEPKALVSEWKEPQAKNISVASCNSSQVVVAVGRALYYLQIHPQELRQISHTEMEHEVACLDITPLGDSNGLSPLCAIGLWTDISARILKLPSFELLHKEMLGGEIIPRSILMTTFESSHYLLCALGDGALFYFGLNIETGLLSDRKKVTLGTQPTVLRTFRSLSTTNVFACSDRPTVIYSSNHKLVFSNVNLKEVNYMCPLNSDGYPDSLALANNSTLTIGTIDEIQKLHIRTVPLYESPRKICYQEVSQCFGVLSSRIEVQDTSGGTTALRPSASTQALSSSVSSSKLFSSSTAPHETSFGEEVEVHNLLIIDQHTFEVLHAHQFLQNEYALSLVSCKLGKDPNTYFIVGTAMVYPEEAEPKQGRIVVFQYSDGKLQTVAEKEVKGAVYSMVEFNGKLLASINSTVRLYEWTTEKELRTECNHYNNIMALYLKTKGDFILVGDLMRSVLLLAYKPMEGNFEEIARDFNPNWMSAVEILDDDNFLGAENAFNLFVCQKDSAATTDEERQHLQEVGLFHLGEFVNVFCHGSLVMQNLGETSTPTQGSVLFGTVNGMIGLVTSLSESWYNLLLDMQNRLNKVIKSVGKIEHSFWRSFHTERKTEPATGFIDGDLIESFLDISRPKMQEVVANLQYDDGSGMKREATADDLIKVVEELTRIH
Chain of GSPT1 (P15170 whole entry): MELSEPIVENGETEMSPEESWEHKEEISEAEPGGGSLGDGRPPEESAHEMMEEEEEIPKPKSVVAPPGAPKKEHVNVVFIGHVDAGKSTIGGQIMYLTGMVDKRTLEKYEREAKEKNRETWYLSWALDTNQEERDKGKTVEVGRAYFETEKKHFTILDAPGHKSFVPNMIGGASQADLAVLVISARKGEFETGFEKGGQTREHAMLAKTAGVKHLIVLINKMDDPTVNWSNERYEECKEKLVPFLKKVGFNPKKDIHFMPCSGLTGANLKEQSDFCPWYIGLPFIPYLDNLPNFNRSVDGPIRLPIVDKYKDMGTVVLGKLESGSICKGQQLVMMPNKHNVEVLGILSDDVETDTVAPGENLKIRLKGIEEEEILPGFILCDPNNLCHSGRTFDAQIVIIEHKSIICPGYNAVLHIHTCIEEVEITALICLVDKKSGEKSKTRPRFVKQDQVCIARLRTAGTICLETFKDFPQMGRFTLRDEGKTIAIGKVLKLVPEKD
Chain of GSPT1 (Q96SW2 whole entry): as the sequence (Q96SW2 whole entry) above
Chain of GSPT1 (Q16531 whole entry partner): as the sequence (Q16531 whole entry partner) above
Chain of IKZF3 (Q9UKT9 whole entry): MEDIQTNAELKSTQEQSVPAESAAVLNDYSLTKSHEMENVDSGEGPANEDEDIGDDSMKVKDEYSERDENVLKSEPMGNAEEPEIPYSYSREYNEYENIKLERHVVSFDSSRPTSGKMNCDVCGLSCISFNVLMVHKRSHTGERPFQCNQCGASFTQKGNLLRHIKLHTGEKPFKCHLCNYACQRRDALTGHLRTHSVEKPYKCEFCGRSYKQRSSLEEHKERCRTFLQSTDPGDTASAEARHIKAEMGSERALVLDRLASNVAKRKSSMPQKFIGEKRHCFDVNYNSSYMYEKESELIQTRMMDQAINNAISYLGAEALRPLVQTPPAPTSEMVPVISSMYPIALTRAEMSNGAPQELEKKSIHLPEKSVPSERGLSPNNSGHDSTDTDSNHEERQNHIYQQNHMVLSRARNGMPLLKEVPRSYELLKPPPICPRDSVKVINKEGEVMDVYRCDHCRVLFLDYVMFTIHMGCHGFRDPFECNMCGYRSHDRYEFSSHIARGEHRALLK
Chain of IKZF3 (Q96SW2 whole entry): as the sequence (Q96SW2 whole entry) above
Chain of IKZF3 (Q16531 whole entry partner): as the sequence (Q16531 whole entry partner) above

Structure (SMILES) | IC50 [4] | concentration at which IKZF1 protein was significantly degraded (Western blot, FIG. 1) ([2]; hPBMCs) | concentration at which IKZF3 protein was significantly degraded (Western blot, FIG. 1) ([3]; hPBMCs) | substrate protein remaining % GSPT1 [1] | substrate protein remaining % IKZF1 [2] | substrate protein remaining % IKZF3 [3] | concentration at which GSPT1 protein was clearly/significantly degraded (Western blot, FIG. 1) ([1]; hPBMCs)
O=C1CCC(N2Cc3c(ccc(CN4CC5CCC(C4)N5C(c4ccccc4)c4ccccc4)c3F)C2=O)C(=O)N1 (centres unmarked) [GT-03725, 3-(5-((8-benzhydryl-3,8-diazabicyclo[3.2.1]octan-3-yl)methyl)-4-fluoro-1-oxoisoindolin-2-yl)piperidine-2,6-dione] | 500 to 1000 nM |  |  | A (A represents 0% ≤ substrate protein remaining % ≤ 50%) | A (A represents 0% ≤ substrate protein remaining % ≤ 50%) | A (A represents 0% ≤ substrate protein remaining % ≤ 50%) | 
O=C1CCC(N2Cc3c(ccc(CN4C5CCC4CN(C(c4ccccc4)c4ccccc4)C5)c3F)C2=O)C(=O)N1 (centres unmarked) [GT-03838, 3-(5-((3-benzhydryl-3,8-diazabicyclo[3.2.1]octan-8-yl)methyl)-4-fluoro-1-oxoisoindolin-2-yl)piperidine-2,6-dione] | 500 to 1000 nM |  |  | A (A represents 0% ≤ substrate protein remaining % ≤ 50%) | A (A represents 0% ≤ substrate protein remaining % ≤ 50%) | A (A represents 0% ≤ substrate protein remaining % ≤ 50%) | 
CC1CN(Cc2ccc3c(c2)CN(C2CCC(=O)NC2=O)C3=O)CC(C)N1C(c1ccccc1)c1ccccc1 (centres unmarked) [GT-03872, 3-(5-((4-benzhydryl-3,5-dimethylpiperazin-1-yl)methyl)-1-oxoisoindolin-2-yl)piperidine-2,6-dione] | 1000 to 1900 nM |  |  | A (A represents 0% ≤ substrate protein remaining % ≤ 50%) | B (B represents substrate protein remaining % > 50%) | A (A represents 0% ≤ substrate protein remaining % ≤ 50%) | 
O=C1CCC(N2Cc3cc(CN4CCN(C(c5ccccn5)c5ccccn5)CC4)c(F)cc3C2=O)C(=O)N1 (centres unmarked) [GT-04384, 3-(5-((4-(di(pyridin-2-yl)methyl)piperazin-1-yl)methyl)-6-fluoro-1-oxoisoindolin-2-yl)piperidine-2,6-dione] | 500 to 1000 nM |  |  | A (A represents 0% ≤ substrate protein remaining % ≤ 50%) | B (B represents substrate protein remaining % > 50%) | B (B represents substrate protein remaining % > 50%) | 
O=C1CCC(N2Cc3c(CN4CCN(C(c5ccccc5)c5ccncc5)CC4)cccc3C2=O)C(=O)N1 (centres unmarked) [GT-04945, 3-(1-oxo-4-((4-(phenyl(pyridin-4-yl)methyl)piperazin-1-yl)methyl)isoindolin-2-yl)piperidine-2,6-dione] | 500 to 1000 nM |  |  | A (A represents 0% ≤ substrate protein remaining % ≤ 50%) | B (B represents substrate protein remaining % > 50%) | B (B represents substrate protein remaining % > 50%) | 
O=C1CCC(N2Cc3c(CN4CCC(N(c5ccccc5)c5ccccn5)CC4)cccc3C2=O)C(=O)N1 (centres unmarked) [GT-04948, 3-(1-oxo-4-((4-(phenyl(pyridin-2-yl)amino)piperidin-1-yl)methyl)isoindolin-2-yl)piperidine-2,6-dione] | 500 to 1000 nM |  |  | A (A represents 0% ≤ substrate protein remaining % ≤ 50%) | B (B represents substrate protein remaining % > 50%) | B (B represents substrate protein remaining % > 50%) | < 500 nM
O=C1CCC(N2Cc3c(CN4CCC(N(c5ccccc5)c5ccccc5)CC4)cccc3C2=O)C(=O)N1 (centres unmarked) [GT-04992, 3-(4-((4-(diphenylamino)piperidin-1-yl)methyl)-1-oxoisoindolin-2-yl)piperidine-2,6-dione] | < 500 nM |  |  | A (A represents 0% ≤ substrate protein remaining % ≤ 50%) | B (B represents substrate protein remaining % > 50%) | B (B represents substrate protein remaining % > 50%) | 
O=C1CCC(N2Cc3cc(CCCN4CCN(C(c5ccccc5)c5ccccc5)CC4)ccc3C2=O)C(=O)N1 (centres unmarked) [GT-05688, 3-(5-(3-(4-benzhydrylpiperazin-1-yl)propyl)-1-oxoisoindolin-2-yl)piperidine-2,6-dione] | 1000 to 1900 nM | below 50 nM | below 50 nM | B (B represents substrate protein remaining % > 50%) | A (A represents 0% ≤ substrate protein remaining % ≤ 50%) | A (A represents 0% ≤ substrate protein remaining % ≤ 50%) | 

More lines, main results first:

IC50 [4] | concentration at which IKZF1 protein was significantly degraded (Western blot, FIG. 1) ([2]; hPBMCs) | concentration at which IKZF3 protein was significantly degraded (Western blot, FIG. 1) ([3]; hPBMCs) | Structure (SMILES) | substrate protein remaining % GSPT1 [1] | substrate protein remaining % IKZF1 [2] | substrate protein remaining % IKZF3 [3] | concentration at which GSPT1 protein was clearly/significantly degraded (Western blot, FIG. 1) ([1]; hPBMCs)
500 to 1000 nM |  |  | CC1CN(C(c2ccccc2)c2ccccc2)CC(C)N1Cc1ccc2c(c1)CN(C1CCC(=O)NC1=O)C2=O (centres unmarked) [GT-03723, 3-(5-((4-benzhydryl-2,6-dimethylpiperazin-1-yl)methyl)-1-oxoisoindolin-2-yl)piperidine-2,6-dione] | A (A represents 0% ≤ substrate protein remaining % ≤ 50%) | B (B represents substrate protein remaining % > 50%) | B (B represents substrate protein remaining % > 50%) | 
< 500 nM |  |  | CC1CN(C(c2ccccc2)c2ccccc2)CC(C)N1Cc1ccc2c(c1F)CN(C1CCC(=O)NC1=O)C2=O (centres unmarked) [GT-03726, 3-(5-((4-benzhydryl-2,6-dimethylpiperazin-1-yl)methyl)-4-fluoro-1-oxoisoindolin-2-yl)piperidine-2,6-dione] | A (A represents 0% ≤ substrate protein remaining % ≤ 50%) | B (B represents substrate protein remaining % > 50%) | B (B represents substrate protein remaining % > 50%) | 
500 to 1000 nM |  |  | O=C1CCC(N2Cc3c(CN4CCN(C(c5ccccc5)c5ccccn5)CC4)cccc3C2=O)C(=O)N1 (centres unmarked) [GT-03836, 3-(1-oxo-4-((4-(phenyl(pyridin-2-yl)methyl)piperazin-1-yl)methyl)isoindolin-2-yl)piperidine-2,6-dione] | A (A represents 0% ≤ substrate protein remaining % ≤ 50%) | B (B represents substrate protein remaining % > 50%) | B (B represents substrate protein remaining % > 50%) | 
< 500 nM |  |  | CC1CN(C(c2ccccc2)c2ccccc2)CC(C)N1Cc1cc2c(cc1F)C(=O)N(C1CCC(=O)NC1=O)C2 (centres unmarked) [GT-03873, 3-(5-((4-benzhydryl-2,6-dimethylpiperazin-1-yl)methyl)-6-fluoro-1-oxoisoindolin-2-yl)piperidine-2,6-dione] | A (A represents 0% ≤ substrate protein remaining % ≤ 50%) | A (A represents 0% ≤ substrate protein remaining % ≤ 50%) | B (B represents substrate protein remaining % > 50%) | 
< 500 nM |  |  | O=C1CCC(N2Cc3cc(CN4CC5CCC4CN5C(c4ccccc4)c4ccccc4)ccc3C2=O)C(=O)N1 (centres unmarked) [GT-03993, 3-(5-((5-benzhydryl-2,5-diazabicyclo[2.2.2]octan-2-yl)methyl)-1-oxoisoindolin-2-yl)piperidine-2,6-dione] | A (A represents 0% ≤ substrate protein remaining % ≤ 50%) | B (B represents substrate protein remaining % > 50%) | A (A represents 0% ≤ substrate protein remaining % ≤ 50%) | 
< 500 nM |  |  | O=C1CCC(N2Cc3cc(CN4CCCN(C(c5ccccc5)c5ccccc5)CC4)ccc3C2=O)C(=O)N1 (centres unmarked) [GT-03994, 3-(5-((4-benzhydryl-1,4-diazepan-1-yl)methyl)-1-oxoisoindolin-2-yl)piperidine-2,6-dione] | A (A represents 0% ≤ substrate protein remaining % ≤ 50%) | B (B represents substrate protein remaining % > 50%) | B (B represents substrate protein remaining % > 50%) | 
500 to 1000 nM |  |  | O=C1CCC(N2Cc3c(ccc(CN4CC5CCC4CN5C(c4ccccc4)c4ccccc4)c3F)C2=O)C(=O)N1 (centres unmarked) [GT-04163, 3-(5-((5-benzhydryl-2,5-diazabicyclo[2.2.2]octan-2-yl)methyl)-4-fluoro-1-oxoisoindolin-2-yl)piperidine-2,6-dione] | A (A represents 0% ≤ substrate protein remaining % ≤ 50%) | B (B represents substrate protein remaining % > 50%) | A (A represents 0% ≤ substrate protein remaining % ≤ 50%) | 
500 to 1000 nM |  |  | O=C1CCC(N2Cc3c(ccc(CN4CCCN(C(c5ccccc5)c5ccccc5)CC4)c3F)C2=O)C(=O)N1 (centres unmarked) [GT-04164, 3-(5-((4-benzhydryl-1,4-diazepan-1-yl)methyl)-4-fluoro-1-oxoisoindolin-2-yl)piperidine-2,6-dione] | A (A represents 0% ≤ substrate protein remaining % ≤ 50%) | B (B represents substrate protein remaining % > 50%) | B (B represents substrate protein remaining % > 50%) | 
< 500 nM |  |  | O=C1CCC(N2Cc3cc(CN4CCN(C(c5ccccn5)c5ccccn5)CC4)ccc3C2=O)C(=O)N1 (centres unmarked) [GT-04383, 3-(5-((4-(di(pyridin-2-yl)methyl)piperazin-1-yl)methyl)-1-oxoisoindolin-2-yl)piperidine-2,6-dione] | A (A represents 0% ≤ substrate protein remaining % ≤ 50%) | B (B represents substrate protein remaining % > 50%) | B (B represents substrate protein remaining % > 50%) | 
